This note sets out measurements from ChEMBL document CHEMBL1255224, “Design and synthesis of prolylcarboxypeptidase (PrCP) inhibitors to validate PrCP as a potential target for obesity” (J Med Chem, 2010).

Data set [1] has as its target T1, Lysosomal Pro-X carboxypeptidase (Mus musculus, UniProt Q7TMR0).
T1 sequence (Q7TMR0 whole entry): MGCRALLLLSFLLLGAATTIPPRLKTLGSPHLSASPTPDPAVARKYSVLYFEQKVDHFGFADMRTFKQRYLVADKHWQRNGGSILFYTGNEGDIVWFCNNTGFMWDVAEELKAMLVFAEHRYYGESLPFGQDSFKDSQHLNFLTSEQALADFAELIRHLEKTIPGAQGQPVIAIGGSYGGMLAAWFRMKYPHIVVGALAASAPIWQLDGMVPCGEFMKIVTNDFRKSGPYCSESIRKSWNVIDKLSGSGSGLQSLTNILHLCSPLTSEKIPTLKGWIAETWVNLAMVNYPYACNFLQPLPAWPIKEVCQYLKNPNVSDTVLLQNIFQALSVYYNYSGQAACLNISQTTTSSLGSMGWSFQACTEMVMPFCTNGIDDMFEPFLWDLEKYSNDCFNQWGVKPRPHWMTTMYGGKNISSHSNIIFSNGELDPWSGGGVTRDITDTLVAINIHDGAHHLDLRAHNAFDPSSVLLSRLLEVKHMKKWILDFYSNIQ
Description: Inhibition of mouse PrCP by FRET.

A short description of data set [2]: Volume of distribution in mouse. The settings on record: in vivo. Format: ADME, organism-based.
Data set [3] in a line: Oral bioavailability in mouse. Format: ADME, organism-based. The settings on record: in vivo.
Data set [4] can be described thus: Half life in mouse. Format: ADME, organism-based. Particulars: in vivo.
Data set [5] is described as follows: Clearance in mouse. Format: ADME, organism-based. Particulars: in vivo.
Data set [6] deals with T1, Lysosomal Pro-X carboxypeptidase. Put plainly: Inhibition of mouse PrCP by FRET in presence of 1% mouse serum albumin.
Data set [7] relates to Mus musculus. Put plainly: Antiobesity activity against C57BL/6NT mouse PrCP knock out model assessed as reduction in body weight at 100 mg/kg, po for 5 days. Format: functional. More on the design: scale not given: the % may be the effect or the level left.
Data set [8] has as its system Mus musculus. Description: Antiobesity activity against C57BL/6NT mouse overexpressing PrCP assessed as reduction in body weight at 100 mg/kg, po. More on the design: scale not given: the % may be the effect or the level left. Format: functional.
Data set [9] has as its system Brain. Put plainly: Drug level in C57BL/6NT PrCP knock out mouse brain at 100 mg/kg, po. Format: ADME, organism-based. More on the design: dose 100 mg/kg, route oral. Particulars: in vivo, read-out: Activity.
In data set [10] the test system is Brain. Put plainly: Drug level in C57BL/6NT wild type mouse brain at 100 mg/kg, po. More on the design: dose 100 mg/kg, route oral. The settings on record: in vivo, read-out: Activity. Format: ADME, organism-based.
Data set [11] concerns Blood. Description: Drug level in C57BL/6NT wild type mouse blood at 100 mg/kg, po. Format: ADME, organism-based. More on the design: dose 100 mg/kg, route oral. The settings on record: in vivo, read-out: Activity.
The subject of data set [12] is Blood. Description: Drug level in C57BL/6NT PrCP knock out mouse blood at 100 mg/kg, po. More on the design: dose 100 mg/kg, route oral. Format: ADME, organism-based. Particulars: in vivo, read-out: Activity.

Take `O=C(CCc1ccc(-c2ccccc2)cc1)N1CCC[C@H]1c1ncc(-c2cccc(F)c2)[nH]1`: in data set [1], half-maximal inhibition (IC50) was put at 871 nM. The distribution volume (Vd) – broadly, the apparent volume that relates the amount in the body to the concentration in plasma or blood – in data set [2] came out at 4.6 L/kg. Further, in [3], the bioavailability (usually the share of a dose that reaches the circulation, judged against a reference dose that is usually intravenous) was 5%. In data set [4], the half-life – broadly, how long it takes for the measured level to halve – was 48 min. Moreover, the clearance (usually the rate of elimination divided by the concentration) in data set [5] is 75 mL/min/kg.
Consider `CC(C)(Cc1ccc(-c2ccccc2)cc1)C(=O)N1CCC[C@H]1c1nc(-c2cccc(F)c2)c[nH]1`, for which the Vd in data set [2] worked out at 8.8 L/kg. The compound further displayed a bioavailability in data set [3] of 5%. Besides, the half-life in data set [4] was 138 min. The same compound displayed a clearance in data set [5] of 92 mL/min/kg.
For `Cc1ccccc1-c1c[nH]c([C@@H]2CCCN2C(=O)COc2ccc(-c3ccccc3)cc2)n1`, in that order: 4 L/kg, 49%, 204 min and 54 mL/min/kg.
The like results for `CC(C)(Cc1ccc(-c2cccc(Cl)c2Cl)cc1)C(=O)N1CC(F)(F)C[C@H]1c1ncc(-c2cccc(Br)c2)[nH]1` were, in that order, 4 L/kg, 5%, 576 min and 15 mL/min/kg.
`Cc1cccc2[nH]c([C@@H]3[C@@H]4C[C@@H]4CN3C(=O)COc3ccc(-c4ccccc4)cc3)nc12` came in with a Vd in data set [2] of 2.3 L/kg. The bioavailability in data set [3] came out at 20%. Also, the half-life in data set [4] is 36 min. The compound further showed a clearance in data set [5] of 41 mL/min/kg.
For `N#Cc1cccc(-c2ccc(CCC(=O)N3C[C@H](O)C[C@H]3c3nc(-c4cccc(Cl)c4)c[nH]3)cc2)c1`, in that order: 2.2 L/kg, 1%, 36 min and 82 mL/min/kg.
In the case of `CC(C)(N)C(=O)N[C@@H](Cc1ccc(-c2ccccc2)cc1)C(=O)N1CCC[C@H]1c1nc2cc(Cl)c(Cl)cc2[nH]1`, the IC50 (usually the concentration that gives 50% inhibition) in data set [1] is 15 nM; in data set [6], 789 nM. In data set [2], this compound showed a Vd of 2.7 L/kg. Also, the bioavailability in [3] is 31%. In [4], the half-life was 168 min. In data set [5], the clearance is 12 mL/min/kg.
In turn, `CC(C)(N)C(=O)N[C@@H](Cc1ccc(Cl)cc1)C(=O)N1CCC[C@H]1c1nc2cc(Cl)c(Cl)cc2[nH]1` yielded a Vd in data set [2] of 2.6 L/kg. The compound further had a bioavailability in data set [3] of 100%. Also, the half-life in data set [4] was 180 min. This compound had a clearance in data set [5] of 7 mL/min/kg.
On to `COc1ccc(C[C@H](NC(=O)C(C)(C)N)C(=O)N2CC[C@H]2c2nc3cc(Cl)c(Cl)cc3[nH]2)cc1`, for which the 50% inhibitory concentration (IC50) in [1] amounted to 251 nM; in data set [6], 3320 nM. The compound further displayed a Vd in [2] of 2.2 L/kg. In addition, the bioavailability in data set [3] was 33%. In data set [4], the half-life was 84 min. The compound further registered a clearance in data set [5] of 25 mL/min/kg.
In [2], `CC(C)(O)C(=O)N[C@@H](Cc1ccc(-c2ccccc2)cc1)C(=O)N1CCC[C@H]1c1nc2cc(F)c(F)cc2[nH]1` returned a Vd of 1.5 L/kg. In [3], this compound displayed a bioavailability of 9%. Moreover, the half-life in data set [4] is 30 min. For the same compound, in data set [5], the clearance turned out to be 39 mL/min/kg.
The like results for `CC(C)(CN)C(=O)N[C@@H](Cc1ccc(-c2ccccc2)cc1)C(=O)N1CCC[C@H]1c1nc2cc(Cl)c(Cl)cc2[nH]1` were, in that order, 7.9 L/kg, 0%, 258 min and 23 mL/min/kg.
For `CC(C)(N)CC(=O)N[C@@H](Cc1ccc(-c2ccccc2)cc1)C(=O)N1CCC[C@H]1c1nc2cc(Cl)c(Cl)cc2[nH]1`, in that order: 6.8 L/kg, 0%, 312 min and 14 mL/min/kg.
Regarding `CC(C)(N)C(=O)N[C@@H](Cc1ccc(-c2ccccc2)cc1)C(=O)N1CCC[C@H]1c1ncc(C(C)(C)C)[nH]1`, the IC50 in data set [1] came to 41 nM; in data set [6] it was 17 nM. This compound displayed a Vd in data set [2] of 11 L/kg. Further, in data set [3], the bioavailability amounted to 6%. The half-life in data set [4] was 900 min. In data set [5], this compound gave a clearance of 11 mL/min/kg.
As for `CC(C)(O)C(=O)N[C@@H](Cc1ccc(-c2ccccc2)cc1)C(=O)N1CCC[C@H]1c1ncc(C(C)(C)C)[nH]1`, the concentration for half-maximal inhibition (IC50) in data set [1] worked out at 16 nM; in data set [6], 15 nM. The Vd in data set [2] was determined as 2.9 L/kg. The compound further returned a bioavailability in [3] of 0%. In [4], the half-life was 24 min. In data set [5], this compound returned a clearance of 117 mL/min/kg.
Turning to `C[C@@H](c1ccc(-c2ccccc2)cc1)[C@H](NC(=O)C(C)(C)N)C(=O)N1CCC[C@H]1c1nc2cc(Cl)c(Cl)cc2[nH]1`, the results for the Activity with Mus musculus [7] and in the data set on Mus musculus [8] were 1.1% and 4.9%, respectively. Further, the IC50 in data set [1] is 2 nM; in data set [6] it was 8 nM. The distribution volume (Vd) in data set [2] is 4.4 L/kg. For the same compound, the concentration with Brain [9] was found to be 40 nM; with Brain [10], 50 nM; in the data set with Blood [11], 380 nM; in the data set with Blood [12], 430 nM. This compound also had a bioavailability in data set [3] of 13%. Also, the half-life in data set [4] was 138 min. Moreover, the clearance in [5] was 23 mL/min/kg.
As to `C[C@@H](c1ccccc1)[C@H](NC(=O)C(C)(C)N)C(=O)N1CCC[C@H]1c1nc2cc(Cl)c(Cl)cc2[nH]1`, the IC50 in data set [1] came to 32 nM; in [6], 60 nM. In data set [2], the Vd amounted to 1.5 L/kg. This compound showed a bioavailability in data set [3] of 41%. In data set [4], this compound had a half-life of 90 min. In data set [5], this compound displayed a clearance of 17 mL/min/kg.
For the compound `C[C@@H](c1ccc(-c2ccc(F)cc2)cc1)[C@H](NC(=O)C(C)(C)O)C(=O)N1CCC[C@H]1c1nc2cc(Cl)c(Cl)cc2[nH]1`, the Vd in data set [2] turned out to be 1.2 L/kg. The same compound displayed a bioavailability in data set [3] of 12%. For the same compound, the half-life in data set [4] was 48 min. The clearance in [5] was determined as 23 mL/min/kg.
On to `C[C@@H](c1ccccc1)[C@H](NC(=O)C(C)(C)O)C(=O)N1CCC[C@H]1c1nc2cc(Cl)c(Cl)cc2[nH]1`, for which the IC50 in data set [1] is 29 nM; in data set [6] it was 98 nM. In addition, the distribution volume (Vd) in data set [2] was found to be 2.4 L/kg. The compound also had a bioavailability in [3] of 4%. In data set [4], this compound gave a half-life of 30 min. Further, the clearance in [5] was found to be 72 mL/min/kg.
The compound `Cn1cc(-c2ccc(C[C@H](NC(=O)C(C)(C)N)C(=O)N3CCC[C@H]3c3nc4cc(Cl)c(Cl)cc4[nH]3)cc2)ccc1=O` returned a distribution volume (Vd) in [2] of 14 L/kg. Also, the bioavailability in data set [3] came to 0%. In [4], the half-life was 156 min. In data set [5], the clearance came out at 70 mL/min/kg.
